Assay [1] addresses Tyrosine-protein kinase ABL1 (Homo sapiens, UniProt P00519). Kind of assay: Selectivity interaction (Kinase panel (enzymatic assay)) EUB0000595a ABL1.
The target of assay [2] is Calcium/calmodulin-dependent protein kinase type II subunit beta (Homo sapiens) (UniProt Q13554). Conditions: at 10 µM.
The target in assay [3] is T1, NUAK family SNF1-like kinase 1 (Homo sapiens) (UniProt O60285).
T1 sequence (whole entry): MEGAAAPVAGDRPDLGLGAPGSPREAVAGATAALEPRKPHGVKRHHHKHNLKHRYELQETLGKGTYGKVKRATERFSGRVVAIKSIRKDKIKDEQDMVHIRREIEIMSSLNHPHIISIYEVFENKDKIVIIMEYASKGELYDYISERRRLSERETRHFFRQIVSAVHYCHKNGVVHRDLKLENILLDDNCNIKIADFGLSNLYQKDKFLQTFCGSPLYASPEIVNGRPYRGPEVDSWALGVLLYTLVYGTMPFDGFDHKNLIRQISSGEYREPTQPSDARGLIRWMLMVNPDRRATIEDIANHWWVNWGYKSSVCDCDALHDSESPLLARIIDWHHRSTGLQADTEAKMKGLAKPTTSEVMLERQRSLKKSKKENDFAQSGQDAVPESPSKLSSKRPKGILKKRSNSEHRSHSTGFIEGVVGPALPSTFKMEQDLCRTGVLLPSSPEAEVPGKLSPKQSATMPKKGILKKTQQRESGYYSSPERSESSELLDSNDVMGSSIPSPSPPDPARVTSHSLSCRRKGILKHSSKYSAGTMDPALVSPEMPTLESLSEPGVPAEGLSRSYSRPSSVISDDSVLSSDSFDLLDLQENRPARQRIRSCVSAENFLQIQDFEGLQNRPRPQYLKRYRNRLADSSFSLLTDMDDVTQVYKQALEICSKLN
Kind of assay: Selectivity interaction (KinomeScan (DiscoverX)) EUB0000666a NUAK1. The following applies: at 10 µM.

In assay [4] the target is Rho-associated protein kinase 2 (Homo sapiens, UniProt O75116). The assay can be described thus: Selectivity interaction (KinomeScan (DiscoverX)) EUB0000666a ROCK2. Conditions: at 10 µM.
Assay [5] addresses T2, Serine/threonine-protein kinase 3 (Homo sapiens) (UniProt Q13188).
T2 sequence (whole entry): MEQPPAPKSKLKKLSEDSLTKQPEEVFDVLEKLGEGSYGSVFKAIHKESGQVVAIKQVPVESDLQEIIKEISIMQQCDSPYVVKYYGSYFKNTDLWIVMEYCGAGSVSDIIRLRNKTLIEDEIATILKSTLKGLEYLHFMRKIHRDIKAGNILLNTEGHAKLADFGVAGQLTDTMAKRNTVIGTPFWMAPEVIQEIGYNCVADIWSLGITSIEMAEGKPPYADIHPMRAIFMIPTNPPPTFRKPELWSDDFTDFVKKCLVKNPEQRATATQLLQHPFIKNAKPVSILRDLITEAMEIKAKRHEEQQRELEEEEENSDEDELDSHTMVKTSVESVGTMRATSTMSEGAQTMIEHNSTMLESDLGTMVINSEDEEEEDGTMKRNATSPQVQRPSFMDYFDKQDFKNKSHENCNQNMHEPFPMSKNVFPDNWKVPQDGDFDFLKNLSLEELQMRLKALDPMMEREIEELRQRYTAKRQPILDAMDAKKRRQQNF
Kind of assay: Selectivity interaction (ActivX KiNativ screen (kinase selectivity in THP-1 cell lysates)) EUB0000639a STK3. The assay is classed as subcellular. Conditions: lysate, at 1 µM.

Assay [6] concerns the target CDK3/Cyclin E (Homo sapiens) (UniProt P24864+Q00526). The assay can be described thus: (§1) Selectivity interaction (ProQinase) EUB0000171b CDK3. The assay is classed as protein-complex assay.
Assay [7] deals with Cyclin-dependent kinase 3/Cyclin-C (Homo sapiens) (UniProt Q00526+P24863). The description is as §1. The assay is classed as protein-complex assay.
In assay [8] the target is T3, Ephrin type-B receptor 3 (Homo sapiens) (UniProt P54753).
T3 sequence (whole entry): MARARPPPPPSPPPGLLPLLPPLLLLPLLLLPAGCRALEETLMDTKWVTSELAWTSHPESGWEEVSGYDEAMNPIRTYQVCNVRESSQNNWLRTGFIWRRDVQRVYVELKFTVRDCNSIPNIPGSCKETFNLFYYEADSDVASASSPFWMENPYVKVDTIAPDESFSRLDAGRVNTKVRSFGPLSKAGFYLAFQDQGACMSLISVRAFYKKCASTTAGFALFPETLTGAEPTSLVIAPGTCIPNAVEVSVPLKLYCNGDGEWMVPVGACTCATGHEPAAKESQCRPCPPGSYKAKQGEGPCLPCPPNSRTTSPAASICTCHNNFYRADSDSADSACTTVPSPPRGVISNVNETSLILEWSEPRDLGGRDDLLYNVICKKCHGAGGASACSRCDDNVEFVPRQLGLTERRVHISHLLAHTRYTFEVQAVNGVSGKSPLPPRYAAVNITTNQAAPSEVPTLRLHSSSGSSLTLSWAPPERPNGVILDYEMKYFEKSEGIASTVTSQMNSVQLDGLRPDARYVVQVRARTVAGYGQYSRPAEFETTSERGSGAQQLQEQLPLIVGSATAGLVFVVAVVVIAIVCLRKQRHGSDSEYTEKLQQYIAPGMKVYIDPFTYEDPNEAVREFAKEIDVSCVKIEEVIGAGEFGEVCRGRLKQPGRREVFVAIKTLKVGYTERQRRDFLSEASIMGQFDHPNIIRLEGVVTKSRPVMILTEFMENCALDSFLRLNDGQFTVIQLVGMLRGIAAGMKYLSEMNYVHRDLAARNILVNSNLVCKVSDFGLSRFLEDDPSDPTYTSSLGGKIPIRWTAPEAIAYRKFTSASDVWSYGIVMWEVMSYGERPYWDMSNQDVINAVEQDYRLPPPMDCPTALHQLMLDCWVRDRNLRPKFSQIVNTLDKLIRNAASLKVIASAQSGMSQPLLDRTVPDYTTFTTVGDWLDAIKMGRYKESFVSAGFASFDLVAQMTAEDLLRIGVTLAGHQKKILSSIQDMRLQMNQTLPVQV
The assay can be described thus: Selectivity interaction (Upstate Kinase Profiler service (Millipore)) EUB0000056c EPHB3. Conditions: at 1 µM.

Assay [9] addresses Serine/threonine-protein kinase 33 (Homo sapiens) (UniProt Q9BYT3). Kind of assay: Selectivity interaction (Upstate Kinase Profiler service (Millipore)) EUB0000056c STK33. Conditions: at 1 µM.
The target in the next assay is D(1A) dopamine receptor (Homo sapiens, UniProt P21728). The assay can be described thus: Selectivity interaction (Panel of non-epigenetic targets (kinases, GPCRs, ion channels, and transporters, Eurofins) ) EUB0000271b DRD1. The following applies: at 1 µM.

Chain of Cyclin-dependent kinase 3/Cyclin-C (Homo sapiens) (P24863 whole entry, looked up): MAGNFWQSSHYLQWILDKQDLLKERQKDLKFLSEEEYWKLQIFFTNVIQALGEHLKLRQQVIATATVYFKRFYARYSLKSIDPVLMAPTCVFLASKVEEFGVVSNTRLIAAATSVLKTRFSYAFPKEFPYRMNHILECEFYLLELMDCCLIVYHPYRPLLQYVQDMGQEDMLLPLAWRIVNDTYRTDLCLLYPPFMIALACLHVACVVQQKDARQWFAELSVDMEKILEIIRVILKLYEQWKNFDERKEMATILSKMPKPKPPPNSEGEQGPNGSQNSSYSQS
Chain of Cyclin-dependent kinase 3/Cyclin-C (Homo sapiens) (Q00526 whole entry, looked up): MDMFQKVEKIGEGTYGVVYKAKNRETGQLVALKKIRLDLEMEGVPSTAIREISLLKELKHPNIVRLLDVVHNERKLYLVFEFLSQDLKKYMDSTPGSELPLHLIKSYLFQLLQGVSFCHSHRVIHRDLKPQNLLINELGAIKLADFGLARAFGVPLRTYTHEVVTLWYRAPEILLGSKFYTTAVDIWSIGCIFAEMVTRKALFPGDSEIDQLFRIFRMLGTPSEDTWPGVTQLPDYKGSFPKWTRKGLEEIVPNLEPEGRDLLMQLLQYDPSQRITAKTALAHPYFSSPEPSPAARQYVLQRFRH
Chain of CDK3/Cyclin E (Homo sapiens) (P24864 whole entry, looked up): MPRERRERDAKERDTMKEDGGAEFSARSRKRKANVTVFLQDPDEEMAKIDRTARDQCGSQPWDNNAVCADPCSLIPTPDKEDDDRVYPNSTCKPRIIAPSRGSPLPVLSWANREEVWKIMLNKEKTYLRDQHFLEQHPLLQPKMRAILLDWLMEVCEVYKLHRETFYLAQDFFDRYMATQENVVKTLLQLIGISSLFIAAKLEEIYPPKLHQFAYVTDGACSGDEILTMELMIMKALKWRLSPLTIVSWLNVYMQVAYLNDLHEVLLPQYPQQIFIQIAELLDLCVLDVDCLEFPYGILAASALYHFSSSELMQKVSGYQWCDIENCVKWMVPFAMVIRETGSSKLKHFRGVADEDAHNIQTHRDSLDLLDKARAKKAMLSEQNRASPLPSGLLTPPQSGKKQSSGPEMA
Chain of CDK3/Cyclin E (Homo sapiens) (Q00526 whole entry, looked up): as the sequence (Q00526 whole entry, looked up) above
Chain of Calcium/calmodulin-dependent protein kinase type II subunit beta (Homo sapiens) (Q13554 whole entry): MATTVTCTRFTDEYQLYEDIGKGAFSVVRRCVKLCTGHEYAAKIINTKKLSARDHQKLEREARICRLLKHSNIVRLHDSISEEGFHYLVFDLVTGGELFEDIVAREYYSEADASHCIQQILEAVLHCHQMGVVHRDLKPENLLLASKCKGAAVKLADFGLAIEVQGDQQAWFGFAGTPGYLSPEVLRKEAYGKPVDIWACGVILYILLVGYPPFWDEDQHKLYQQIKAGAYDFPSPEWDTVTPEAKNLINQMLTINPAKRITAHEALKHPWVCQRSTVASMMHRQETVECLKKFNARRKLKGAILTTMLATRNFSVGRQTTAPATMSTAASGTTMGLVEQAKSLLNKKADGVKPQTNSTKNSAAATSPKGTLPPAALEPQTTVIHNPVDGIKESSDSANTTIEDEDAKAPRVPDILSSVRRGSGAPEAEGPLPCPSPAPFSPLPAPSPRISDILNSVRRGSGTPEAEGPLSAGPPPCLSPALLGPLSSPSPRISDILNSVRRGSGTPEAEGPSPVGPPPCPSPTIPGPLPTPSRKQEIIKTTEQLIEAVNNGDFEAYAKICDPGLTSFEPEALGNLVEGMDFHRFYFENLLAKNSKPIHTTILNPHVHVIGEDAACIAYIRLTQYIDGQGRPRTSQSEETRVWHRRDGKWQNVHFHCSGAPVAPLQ
Chain of Serine/threonine-protein kinase 33 (Homo sapiens) (Q9BYT3 whole entry, looked up): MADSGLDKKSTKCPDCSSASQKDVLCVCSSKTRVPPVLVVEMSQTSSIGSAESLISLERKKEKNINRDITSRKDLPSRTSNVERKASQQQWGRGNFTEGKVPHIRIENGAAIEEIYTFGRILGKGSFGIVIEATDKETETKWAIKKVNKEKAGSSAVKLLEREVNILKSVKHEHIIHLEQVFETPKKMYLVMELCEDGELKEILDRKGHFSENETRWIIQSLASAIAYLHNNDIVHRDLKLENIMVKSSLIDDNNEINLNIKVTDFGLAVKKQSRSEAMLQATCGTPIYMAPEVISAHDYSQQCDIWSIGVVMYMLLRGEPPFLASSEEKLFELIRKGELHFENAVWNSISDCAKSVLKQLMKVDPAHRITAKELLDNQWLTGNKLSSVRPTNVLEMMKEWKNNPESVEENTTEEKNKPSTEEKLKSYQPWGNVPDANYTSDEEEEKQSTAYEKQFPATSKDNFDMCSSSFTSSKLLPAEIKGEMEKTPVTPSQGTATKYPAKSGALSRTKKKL
Chain of Tyrosine-protein kinase ABL1 (P00519 whole entry): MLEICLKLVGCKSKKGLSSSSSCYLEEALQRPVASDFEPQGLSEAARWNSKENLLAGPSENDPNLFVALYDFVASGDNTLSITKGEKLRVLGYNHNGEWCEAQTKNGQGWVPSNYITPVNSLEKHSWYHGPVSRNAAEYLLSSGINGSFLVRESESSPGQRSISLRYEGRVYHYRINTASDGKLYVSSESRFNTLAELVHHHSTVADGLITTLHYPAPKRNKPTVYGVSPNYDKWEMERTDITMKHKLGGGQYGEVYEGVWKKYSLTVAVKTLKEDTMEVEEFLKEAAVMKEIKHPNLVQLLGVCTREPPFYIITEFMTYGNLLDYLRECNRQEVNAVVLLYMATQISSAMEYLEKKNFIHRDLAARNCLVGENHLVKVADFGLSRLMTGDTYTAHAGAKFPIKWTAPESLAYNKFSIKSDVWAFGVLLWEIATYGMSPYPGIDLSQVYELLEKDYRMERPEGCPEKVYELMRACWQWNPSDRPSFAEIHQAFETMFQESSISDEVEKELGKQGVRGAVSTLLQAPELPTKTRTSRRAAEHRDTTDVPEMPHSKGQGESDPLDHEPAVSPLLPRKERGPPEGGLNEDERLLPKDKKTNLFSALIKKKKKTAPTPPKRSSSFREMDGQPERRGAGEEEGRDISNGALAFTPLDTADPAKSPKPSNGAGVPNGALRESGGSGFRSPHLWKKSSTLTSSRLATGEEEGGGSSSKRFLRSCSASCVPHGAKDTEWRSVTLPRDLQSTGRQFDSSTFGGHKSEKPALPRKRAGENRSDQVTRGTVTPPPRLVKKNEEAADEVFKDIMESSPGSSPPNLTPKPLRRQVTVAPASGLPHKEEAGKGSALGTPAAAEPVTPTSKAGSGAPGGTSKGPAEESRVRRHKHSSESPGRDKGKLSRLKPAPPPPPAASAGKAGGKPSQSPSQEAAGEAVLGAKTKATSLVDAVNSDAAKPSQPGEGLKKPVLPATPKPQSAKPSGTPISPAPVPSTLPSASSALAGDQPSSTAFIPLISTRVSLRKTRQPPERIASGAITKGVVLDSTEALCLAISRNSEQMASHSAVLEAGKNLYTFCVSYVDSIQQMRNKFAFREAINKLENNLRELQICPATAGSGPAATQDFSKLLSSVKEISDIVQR
Chain of Rho-associated protein kinase 2 (O75116 whole entry, looked up): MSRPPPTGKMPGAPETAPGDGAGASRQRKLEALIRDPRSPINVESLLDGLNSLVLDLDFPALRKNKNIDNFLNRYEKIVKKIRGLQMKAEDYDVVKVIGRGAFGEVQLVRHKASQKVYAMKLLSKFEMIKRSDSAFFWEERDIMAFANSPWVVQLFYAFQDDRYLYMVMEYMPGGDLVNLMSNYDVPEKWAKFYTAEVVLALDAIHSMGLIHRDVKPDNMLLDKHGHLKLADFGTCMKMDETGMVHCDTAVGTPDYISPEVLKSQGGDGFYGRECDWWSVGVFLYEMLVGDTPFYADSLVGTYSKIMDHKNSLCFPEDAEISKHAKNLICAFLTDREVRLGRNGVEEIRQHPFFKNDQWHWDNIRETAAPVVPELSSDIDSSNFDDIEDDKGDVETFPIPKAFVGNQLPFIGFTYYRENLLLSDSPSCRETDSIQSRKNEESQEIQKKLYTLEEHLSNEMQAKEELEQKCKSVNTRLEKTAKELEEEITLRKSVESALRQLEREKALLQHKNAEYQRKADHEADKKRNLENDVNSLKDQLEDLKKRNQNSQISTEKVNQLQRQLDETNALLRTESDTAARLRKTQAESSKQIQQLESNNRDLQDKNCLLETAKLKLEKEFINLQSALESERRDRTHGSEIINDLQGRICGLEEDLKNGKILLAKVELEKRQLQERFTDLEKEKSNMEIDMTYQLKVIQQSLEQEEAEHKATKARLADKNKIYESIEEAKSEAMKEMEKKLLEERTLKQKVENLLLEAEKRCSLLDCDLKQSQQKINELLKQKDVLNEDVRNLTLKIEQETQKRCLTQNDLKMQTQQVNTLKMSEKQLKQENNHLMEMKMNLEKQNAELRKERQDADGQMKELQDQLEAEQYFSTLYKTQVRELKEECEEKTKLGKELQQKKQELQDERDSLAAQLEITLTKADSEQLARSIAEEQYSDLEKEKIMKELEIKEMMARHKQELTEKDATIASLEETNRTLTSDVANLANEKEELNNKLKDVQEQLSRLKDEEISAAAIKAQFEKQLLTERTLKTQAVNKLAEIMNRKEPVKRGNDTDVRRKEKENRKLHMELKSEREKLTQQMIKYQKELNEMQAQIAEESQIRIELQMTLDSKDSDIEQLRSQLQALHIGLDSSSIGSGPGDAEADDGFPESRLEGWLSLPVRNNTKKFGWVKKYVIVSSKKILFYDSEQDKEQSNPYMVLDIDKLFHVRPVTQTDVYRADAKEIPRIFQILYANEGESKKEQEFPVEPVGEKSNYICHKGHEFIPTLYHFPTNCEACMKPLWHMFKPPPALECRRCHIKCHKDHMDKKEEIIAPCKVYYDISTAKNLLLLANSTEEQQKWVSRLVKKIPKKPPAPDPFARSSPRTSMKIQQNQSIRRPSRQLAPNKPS

The term IC50 denotes the concentration needed to halve the response being measured. Turning to `COCC(=O)NC/C=C/c1ccc2ncnc(Nc3ccc(Oc4ccc(C)nc4)c(C)c3)c2c1` [CP-724714], the IC50 in assay [1] was above 10 µM.

For the compound `CCN(CC)CCCCNc1ncc2cc(-c3cc(OC)cc(OC)c3)c(NC(=O)NC(C)(C)C)nc2n1`, the % of control in assay [2] was 100%.

For the compound `O=C(NOC[C@H](O)CO)c1ccc(F)c(F)c1Nc1ccc(I)cc1F`, the % of control in assay [3] amounted to 81%; in assay [4], 100%.

For `CC[C@@H]1[C@H](F)C(=O)N[C@@H]1COc1nccc2cc(C(N)=O)c(OC)cc12` [ZIMLOVISERTIB], the % of inhibition in assay [5] is -8%.

Take `C=CC(=O)Nc1cccc(C(=O)Nc2ccc(Nc3cc(-c4[nH]c(SC)nc4C)ccn3)cc2)c1`: the % of control in assay [6] (at 1 µM) stood at 98%; in assay [6] (at 5 µM), 79%; in [7] (at 1 µM) it was 91%; in [7] (at 5 µM) it was 74%.

As for `Cc1ccc(-c2ccc3c(ccc4sc5c(c43)NC[C@@H](C)NC5=O)n2)cn1`, the % of inhibition was -22% in assay [8] and 39% in assay [9].

On to `Cc1cc(C)cc([C@@H]2c3cc(C)ccc3NC(=O)CN2C(=O)c2ccc(Br)s2)c1`, for which the % of inhibition at D(1A) dopamine receptor stood at 9%.

These data come from ChEMBL document CHEMBL5465560, “Selectivity Literature for EUbOPEN Chemogenomic Library” (2024).
